# Tests used:
# IKZF2 = target: T1, IKZF2 (Homo sapiens, UniProt Q96SW2+Q9UKS7); test: Western blot, degradation of substrate protein in hPBMCs; format: cell-based
# T1 construct: effects of the compounds of the present disclosure on the expression of target proteins in cells; endogenous in cells; host or cells: human PBMCs (Milecell Biotechnologies)
# CK1α = target: T2, CK1α (Homo sapiens, UniProt P48729+Q96SW2); test: as above; format: cell-based
# T2 construct: effects of the compounds of the present disclosure on the expression of target proteins in cells; endogenous in cells; host or cells: human PBMCs (Milecell Biotechnologies)
# T2 sequence (P48729 whole entry): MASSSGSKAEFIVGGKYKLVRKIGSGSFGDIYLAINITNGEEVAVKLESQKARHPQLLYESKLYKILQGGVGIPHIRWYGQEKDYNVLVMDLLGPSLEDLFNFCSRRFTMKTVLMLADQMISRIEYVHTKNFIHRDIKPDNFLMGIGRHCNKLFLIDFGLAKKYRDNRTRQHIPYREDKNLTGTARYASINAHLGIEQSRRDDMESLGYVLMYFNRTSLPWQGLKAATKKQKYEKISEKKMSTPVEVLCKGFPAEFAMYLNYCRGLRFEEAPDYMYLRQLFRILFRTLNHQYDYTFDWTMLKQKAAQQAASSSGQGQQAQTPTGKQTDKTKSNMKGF
# T2 sequence (Q96SW2 whole entry): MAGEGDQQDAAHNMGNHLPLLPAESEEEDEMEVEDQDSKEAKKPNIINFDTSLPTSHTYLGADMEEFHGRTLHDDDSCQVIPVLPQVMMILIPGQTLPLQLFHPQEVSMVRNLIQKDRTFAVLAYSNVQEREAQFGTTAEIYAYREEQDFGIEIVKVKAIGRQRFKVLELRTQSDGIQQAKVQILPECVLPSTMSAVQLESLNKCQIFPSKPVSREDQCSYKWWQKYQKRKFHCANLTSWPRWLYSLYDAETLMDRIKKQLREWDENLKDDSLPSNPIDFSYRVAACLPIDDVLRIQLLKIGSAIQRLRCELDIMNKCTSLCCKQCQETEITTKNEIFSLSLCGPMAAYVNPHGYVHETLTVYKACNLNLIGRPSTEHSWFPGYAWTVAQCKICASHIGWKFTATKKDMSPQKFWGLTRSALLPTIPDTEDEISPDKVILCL
# T2 sequence (Q16531 whole entry partner): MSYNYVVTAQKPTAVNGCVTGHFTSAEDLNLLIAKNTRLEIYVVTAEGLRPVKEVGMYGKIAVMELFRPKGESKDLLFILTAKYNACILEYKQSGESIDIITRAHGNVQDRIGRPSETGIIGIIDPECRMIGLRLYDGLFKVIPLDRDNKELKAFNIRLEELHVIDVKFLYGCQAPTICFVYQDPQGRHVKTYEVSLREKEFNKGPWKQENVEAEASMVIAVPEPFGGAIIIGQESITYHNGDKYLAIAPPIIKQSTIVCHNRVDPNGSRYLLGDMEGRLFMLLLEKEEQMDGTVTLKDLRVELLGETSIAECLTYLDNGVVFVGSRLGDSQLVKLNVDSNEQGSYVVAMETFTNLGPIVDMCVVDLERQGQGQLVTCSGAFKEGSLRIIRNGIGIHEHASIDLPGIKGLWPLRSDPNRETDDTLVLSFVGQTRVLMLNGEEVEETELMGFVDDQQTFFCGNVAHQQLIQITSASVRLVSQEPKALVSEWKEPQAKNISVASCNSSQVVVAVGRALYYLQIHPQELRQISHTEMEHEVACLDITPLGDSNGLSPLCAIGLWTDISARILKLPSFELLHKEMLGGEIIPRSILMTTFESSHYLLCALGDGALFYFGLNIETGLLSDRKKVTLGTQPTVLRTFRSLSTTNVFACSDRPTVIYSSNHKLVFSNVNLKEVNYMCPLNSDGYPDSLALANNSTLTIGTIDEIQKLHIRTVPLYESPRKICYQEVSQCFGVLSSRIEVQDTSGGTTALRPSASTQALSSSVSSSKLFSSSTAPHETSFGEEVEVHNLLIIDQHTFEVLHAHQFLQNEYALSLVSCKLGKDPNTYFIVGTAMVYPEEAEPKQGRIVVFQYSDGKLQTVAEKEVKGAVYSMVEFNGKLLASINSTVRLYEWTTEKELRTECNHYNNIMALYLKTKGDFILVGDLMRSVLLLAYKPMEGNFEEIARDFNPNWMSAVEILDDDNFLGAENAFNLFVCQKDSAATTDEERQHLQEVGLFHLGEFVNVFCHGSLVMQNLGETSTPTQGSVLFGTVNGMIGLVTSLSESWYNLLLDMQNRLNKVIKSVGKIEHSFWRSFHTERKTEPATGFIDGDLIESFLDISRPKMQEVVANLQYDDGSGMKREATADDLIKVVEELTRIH
# WEE1 = target: T3, WEE1 (Homo sapiens, UniProt P30291+Q96SW2); test: as above; format: cell-based
# T3 construct: effects of the compounds of the present disclosure on the expression of target proteins in cells; endogenous in cells; host or cells: human PBMCs (Milecell Biotechnologies)
# T3 sequence (P30291 whole entry): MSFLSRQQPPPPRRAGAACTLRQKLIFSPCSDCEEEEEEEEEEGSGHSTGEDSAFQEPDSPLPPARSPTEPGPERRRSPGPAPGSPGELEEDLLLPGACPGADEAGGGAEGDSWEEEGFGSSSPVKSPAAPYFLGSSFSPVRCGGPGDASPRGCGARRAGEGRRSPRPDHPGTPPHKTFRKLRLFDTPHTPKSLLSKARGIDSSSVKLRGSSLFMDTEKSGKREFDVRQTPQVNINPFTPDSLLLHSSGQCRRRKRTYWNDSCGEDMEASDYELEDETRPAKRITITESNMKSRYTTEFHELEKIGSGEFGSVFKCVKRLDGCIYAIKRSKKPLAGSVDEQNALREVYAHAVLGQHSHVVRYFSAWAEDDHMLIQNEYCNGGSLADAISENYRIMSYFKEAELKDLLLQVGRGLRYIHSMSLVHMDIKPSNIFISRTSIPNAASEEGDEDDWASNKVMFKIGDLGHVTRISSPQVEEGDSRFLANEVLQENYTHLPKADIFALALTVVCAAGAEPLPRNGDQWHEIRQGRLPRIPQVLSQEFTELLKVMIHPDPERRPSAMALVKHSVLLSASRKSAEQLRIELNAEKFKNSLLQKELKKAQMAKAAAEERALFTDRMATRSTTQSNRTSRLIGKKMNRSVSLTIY
# T3 sequence (Q96SW2 whole entry): as the sequence (Q96SW2 whole entry) above
# T3 sequence (Q16531 whole entry partner): as the sequence (Q16531 whole entry partner) above
# IKZF3 = target: T4, IKZF3 (Homo sapiens, UniProt Q96SW2+Q9UKT9); test: as above; format: cell-based
# T4 construct: effects of the compounds of the present disclosure on the expression of target proteins in cells; endogenous in cells; host or cells: human PBMCs (Milecell Biotechnologies)
# T4 sequence (Q9UKT9 whole entry): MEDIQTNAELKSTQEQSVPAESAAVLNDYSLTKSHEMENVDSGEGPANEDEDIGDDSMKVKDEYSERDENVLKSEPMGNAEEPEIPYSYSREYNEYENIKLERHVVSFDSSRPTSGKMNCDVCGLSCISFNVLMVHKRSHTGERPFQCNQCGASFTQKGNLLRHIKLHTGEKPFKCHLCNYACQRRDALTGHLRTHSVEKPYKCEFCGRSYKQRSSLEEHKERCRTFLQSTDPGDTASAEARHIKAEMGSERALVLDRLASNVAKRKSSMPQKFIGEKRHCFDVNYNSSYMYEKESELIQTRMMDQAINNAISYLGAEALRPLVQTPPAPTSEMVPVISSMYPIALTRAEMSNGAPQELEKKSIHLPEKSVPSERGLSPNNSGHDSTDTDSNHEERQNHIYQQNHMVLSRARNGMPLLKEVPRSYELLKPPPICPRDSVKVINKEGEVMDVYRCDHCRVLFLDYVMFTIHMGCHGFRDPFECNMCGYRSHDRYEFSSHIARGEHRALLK
# T4 sequence (Q96SW2 whole entry): as the sequence (Q96SW2 whole entry) above
# T4 sequence (Q16531 whole entry partner): as the sequence (Q16531 whole entry partner) above
# IKZF1 = target: T5, IKZF1 (Homo sapiens, UniProt Q13422+Q96SW2); test: as above; format: cell-based
# T5 construct: effects of the compounds of the present disclosure on the expression of target proteins in cells; endogenous in cells; host or cells: human PBMCs (Milecell Biotechnologies)
# T5 sequence (Q13422 whole entry): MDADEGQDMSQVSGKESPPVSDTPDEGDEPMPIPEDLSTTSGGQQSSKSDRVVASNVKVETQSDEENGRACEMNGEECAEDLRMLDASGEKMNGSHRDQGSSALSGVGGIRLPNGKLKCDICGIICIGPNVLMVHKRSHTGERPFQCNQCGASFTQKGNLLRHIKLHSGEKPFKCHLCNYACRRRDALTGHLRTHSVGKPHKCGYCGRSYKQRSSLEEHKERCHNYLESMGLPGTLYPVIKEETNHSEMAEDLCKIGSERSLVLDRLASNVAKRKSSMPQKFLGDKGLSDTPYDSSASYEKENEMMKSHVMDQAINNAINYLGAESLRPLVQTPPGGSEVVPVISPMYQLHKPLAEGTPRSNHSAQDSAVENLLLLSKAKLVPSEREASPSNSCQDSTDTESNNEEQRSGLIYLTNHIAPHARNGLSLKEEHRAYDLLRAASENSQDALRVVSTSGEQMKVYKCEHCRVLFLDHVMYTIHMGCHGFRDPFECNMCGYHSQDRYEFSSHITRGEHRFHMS
# T5 sequence (Q96SW2 whole entry): as the sequence (Q96SW2 whole entry) above
# T5 sequence (Q16531 whole entry partner): as the sequence (Q16531 whole entry partner) above
# [1] = target: T6, human Cereblon WT GST-tagged protein (Homo sapiens, UniProt Q96SW2); test: CRBN-binding affinity, HTRF (CEREBLON BINDING kit); settings: for inhibition at 0.5 µM: read-out: Inhibition Rate at 0.5 µM (%); for inhibition at 2 µM: read-out: Inhibition Rate at 2 µM (%)
# T6 construct: purchased CISBIO 64BDCRBNPEH
# T6 sequence (Q96SW2 whole entry): as the sequence (Q96SW2 whole entry) above
# GSPT1 = test: Western blot, degradation of substrate protein in hPBMCs; format: cell-based, Human
# [2] = 24 hours treatment, compounds at 50 nM and 500 nM (concentration behind the class not stated)
# [3] = Western blot, 24 hours of compound treatment, compounds tested at 50 nM and 500 nM (concentration for the table not stated)
# T1 sequence (Q9UKS7 whole entry): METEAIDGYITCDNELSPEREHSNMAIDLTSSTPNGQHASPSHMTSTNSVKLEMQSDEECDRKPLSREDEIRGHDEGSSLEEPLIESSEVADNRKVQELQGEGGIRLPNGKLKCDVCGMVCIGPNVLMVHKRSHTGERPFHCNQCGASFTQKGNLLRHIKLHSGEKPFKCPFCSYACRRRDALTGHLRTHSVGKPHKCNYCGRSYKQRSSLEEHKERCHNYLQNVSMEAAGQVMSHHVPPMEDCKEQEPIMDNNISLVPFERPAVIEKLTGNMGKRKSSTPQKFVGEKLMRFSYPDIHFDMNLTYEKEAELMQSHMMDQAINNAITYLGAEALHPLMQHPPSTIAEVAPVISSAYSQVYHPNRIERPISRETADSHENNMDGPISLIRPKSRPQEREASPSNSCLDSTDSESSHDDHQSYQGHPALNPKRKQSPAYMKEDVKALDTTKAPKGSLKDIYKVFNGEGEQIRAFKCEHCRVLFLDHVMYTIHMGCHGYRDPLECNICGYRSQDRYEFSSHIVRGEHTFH
# T1 sequence (Q96SW2 whole entry): as the sequence (Q96SW2 whole entry) above
# T1 sequence (Q16531 whole entry partner): as the sequence (Q16531 whole entry partner) above
Compound,IKZF2 substrate protein remaining % (IKZF2; [2]),CK1α substrate protein remaining % (CK1α; [2]),Wee1 substrate protein remaining % (WEE1; [2]),IKZF3 substrate protein remaining % (IKZF3; [2]),IKZF 1 substrate protein remaining % (IKZF1; [2]),inhibition at 0.5 µM [1] [%],inhibition at 2 µM [1] [%],GSPT1 substrate protein remaining % (GSPT1; [2]),IKZF2 substrate protein remaining % (IKZF2; [3]),CK1α substrate protein remaining % (CK1α; [3]),Wee1 substrate protein remaining % (WEE1; [3]),IKZF3 substrate protein remaining % (IKZF3; [3]),IKZF 1 substrate protein remaining % (IKZF1; [3]),GSPT1 substrate protein remaining % (GSPT1; [3])
"Cc1nc(C2=CCN(Cc3cccc4c3CN(C3CCC(=O)NC3=O)C4=S)CC2)c2ccsc2n1 (stereo not shown) [GT-08959, 3-(4-((4-(2-methylthieno[2,3-d]pyrimidin-4-yl)-3,6-dihydropyridin-1(2H)-yl)methyl)-1-thioxoisoindolin-2-yl)piperidine-2,6-dione]",B (80%< substrate protein remaining %≤ 100%),B (80%< substrate protein remaining %≤ 100%),A (0% ≤ substrate protein remaining % ≤ 80%),B (80%< substrate protein remaining %≤ 100%),B (80%< substrate protein remaining %≤ 100%),60 to 80,80 to 100,B (80%< substrate protein remaining %≤ 100%),–,–,–,–,–,–
"O=C1CCC(N2Cc3c(CN4CCN(c5noc6cc(F)ccc56)CC4)cccc3C2=S)C(=O)N1 (stereo not shown) [GT-08818, 3-(4-((4-(6-fluorobenzo[d]isoxazol-3-yl)piperazin-1-yl)methyl)-1-thioxoisoindolin-2-yl)piperidine-2,6-dione]",–,–,–,–,–,53 to 60,60 to 80,–,B (80%< substrate protein remaining %≤ 100%),B (80%< substrate protein remaining %≤ 100%),A (0% ≤ substrate protein remaining % ≤ 80%),B (80%< substrate protein remaining %≤ 100%),B (80%< substrate protein remaining %≤ 100%),A (0% ≤ substrate protein remaining % ≤ 80%)
"Cc1nc(C2CCN(Cc3ccc4c(c3)CN(C3CCC(=O)NC3=O)C4=S)CC2)c2c3c(sc2n1)CCCC3 (stereo not shown) [GT-09310, 3-(5-((4-(2-methyl-5,6,7,8-tetrahydrobenzo[4,5]thieno[2,3-d]pyrimidin-4-yl)piperidin-1-yl)methyl)-1-thioxoisoindolin-2-yl)piperidine-2,6-dione]",B (80%< substrate protein remaining %≤ 100%),B (80%< substrate protein remaining %≤ 100%),B (80%< substrate protein remaining %≤ 100%),A (0% ≤ substrate protein remaining % ≤ 80%),B (80%< substrate protein remaining %≤ 100%),53 to 60,80 to 100,A (0% ≤ substrate protein remaining % ≤ 80%),–,–,–,–,–,–
"Cc1nc(C2=CCN(Cc3ccc4c(c3)CN(C3CCC(=O)NC3=O)C4=S)CC2)c2c3c(sc2n1)CCC3 (stereo not shown) [GT-09326, 3-(5-((4-(2-methyl-6,7-dihydro-5H-cyclopenta[4,5]thieno[2,3-d]pyrimidin-4-yl)-3,6-dihydropyridin-1(2H)-yl)methyl)-1-thioxoisoindolin-2-yl)piperidine-2,6-dione]",B (80%< substrate protein remaining %≤ 100%),B (80%< substrate protein remaining %≤ 100%),A (0% ≤ substrate protein remaining % ≤ 80%),B (80%< substrate protein remaining %≤ 100%),B (80%< substrate protein remaining %≤ 100%),53 to 60,80 to 100,A (0% ≤ substrate protein remaining % ≤ 80%),–,–,–,–,–,–
"O=C1CCC(N2Cc3c(CN4CCN(c5cccnn5)CC4)cccc3C2=S)C(=O)N1 (stereo not shown) [GT-08810, 3-(4-((4-(pyridazin-3-yl)piperazin-1-yl)methyl)-1-thioxoisoindolin-2-yl)piperidine-2,6-dione]",–,–,–,–,–,60 to 80,80 to 100,–,B (80%< substrate protein remaining %≤ 100%),B (80%< substrate protein remaining %≤ 100%),A (0% ≤ substrate protein remaining % ≤ 80%),B (80%< substrate protein remaining %≤ 100%),B (80%< substrate protein remaining %≤ 100%),B (80%< substrate protein remaining %≤ 100%)
"O=C1CCC(N2Cc3c(CN4CCN(c5nccc(Cl)c5F)CC4)cccc3C2=S)C(=O)N1 (stereo not shown) [GT-08803, 3-(4-((4-(4-chloro-3-fluoropyridin-2-yl)piperazin-1-yl)methyl)-1-thioxoisoindolin-2-yl)piperidine-2,6-dione]",–,–,–,–,–,60 to 80,80 to 100,–,B (80%< substrate protein remaining %≤ 100%),B (80%< substrate protein remaining %≤ 100%),A (0% ≤ substrate protein remaining % ≤ 80%),B (80%< substrate protein remaining %≤ 100%),B (80%< substrate protein remaining %≤ 100%),B (80%< substrate protein remaining %≤ 100%)
"O=C1CCC(N2Cc3c(CN4CCN(c5nc(N6CCOCC6)nc6c5SCC6)CC4)cccc3C2=S)C(=O)N1 (stereo not shown) [GT-08968, 3-(4-((4-(2-morpholino-6,7-dihydrothieno[3,2-d]pyrimidin-4-yl)piperazin-1-yl)methyl)-1-thioxoisoindolin-2-yl)piperidine-2,6-dione]",B (80%< substrate protein remaining %≤ 100%),B (80%< substrate protein remaining %≤ 100%),A (0% ≤ substrate protein remaining % ≤ 80%),B (80%< substrate protein remaining %≤ 100%),B (80%< substrate protein remaining %≤ 100%),60 to 80,80 to 100,B (80%< substrate protein remaining %≤ 100%),–,–,–,–,–,–
"Cc1ccccc1N1CCN(Cc2ccc3c(c2)CN(C2CCC(=O)NC2=O)C3=S)CC1 (stereo not shown) [GT-08601, 3-(1-thioxo-5-((4-(o-tolyl)piperazin-1-yl)methyl)isoindolin-2-yl)piperidine-2,6-dione]",–,–,–,–,–,40 to 53,80 to 100,–,B (80%< substrate protein remaining %≤ 100%),B (80%< substrate protein remaining %≤ 100%),B (80%< substrate protein remaining %≤ 100%),B (80%< substrate protein remaining %≤ 100%),B (80%< substrate protein remaining %≤ 100%),A (0% ≤ substrate protein remaining % ≤ 80%)
"CC(C)c1cc2c(C3=CCN(Cc4cccc5c4CN(C4CCC(=O)NC4=O)C5=S)CC3)ncnc2s1 (stereo not shown) [GT-08954, 3-(4-((4-(6-isopropylthieno[2,3-d]pyrimidin-4-yl)-3,6-dihydropyridin-1(2H)-yl)methyl)-1-thioxoisoindolin-2-yl)piperidine-2,6-dione]",B (80%< substrate protein remaining %≤ 100%),B (80%< substrate protein remaining %≤ 100%),A (0% ≤ substrate protein remaining % ≤ 80%),B (80%< substrate protein remaining %≤ 100%),B (80%< substrate protein remaining %≤ 100%),40 to 53,60 to 80,A (0% ≤ substrate protein remaining % ≤ 80%),–,–,–,–,–,–
"O=C1CCC(N2Cc3c(CN4CC=C(c5ccoc5)CC4)cccc3C2=S)C(=O)N1 (stereo not shown) [GT-08319, 3-(4-((4-(furan-3-yl)-3,6-dihydropyridin-1 (2H)-yl)methyl)-1-thioxoisoindolin-2-yl)piperidine-2,6-dione]",B (80%< substrate protein remaining %≤ 100%),B (80%< substrate protein remaining %≤ 100%),A (0% ≤ substrate protein remaining % ≤ 80%),A (0% ≤ substrate protein remaining % ≤ 80%),B (80%< substrate protein remaining %≤ 100%),40 to 53,80 to 100,B (80%< substrate protein remaining %≤ 100%),–,–,–,–,–,–
"O=C1CCC(N2Cc3cc(CN4CCC(n5c(=O)[nH]c6cc(F)ccc65)CC4)ccc3C2=S)C(=O)N1 (stereo not shown) [GT-09263, 3-(5-((4-(5-fluoro-2-oxo-2,3-dihydro-1H-benzo[d]imidazol-1-yl)piperidin-1-yl)methyl)-1-thioxoisoindolin-2-yl)piperidine-2,6-dione]",B (80%< substrate protein remaining %≤ 100%),B (80%< substrate protein remaining %≤ 100%),B (80%< substrate protein remaining %≤ 100%),B (80%< substrate protein remaining %≤ 100%),B (80%< substrate protein remaining %≤ 100%),60 to 80,80 to 100,A (0% ≤ substrate protein remaining % ≤ 80%),–,–,–,–,–,–
